Reference: US20190307729A1, “ANTIMICROBIAL COMPOUNDS AND METHODS FOR USE THEREOF” (VERSITECH LIMITED, priority 2016, published 2019)

Test system: B. cepacia
Test: Pigment formation (virulence suppression)
Format: cell-based, Burkholderia cepacia

Compound: O=C(O)CN1C(=O)C(=Cc2ccc(OCc3ccc(Cl)cc3)cc2)SC1=S [Compound 82]
- pigment formation: repressing the pigment formation
